Measurements taken from patent US7928089B2, “Mucoactive agents for treating a pulmonary disease” (Vectura Limited, priority 2003, dated 2011).

Assay: Stage 1 heparin dose-response: CF sputum viscoelasticity by magnetic microrheometry
Parameters: species or system human
Conditions: 30 minutes at 37°, 10 rad/s, 10 CF sputum samples; FIG. 3; NAL 309 mcg/mL
Method: An experimental programme was conducted to test the mucolytic activity of selected mucoactive agents. The primary objective of this initial protocol is to determine the mucolytic activity (capacity to reduce the viscosity and elasticity and thereby affect clearability) of heparin in cystic fibrosis sputum at concentrations of potential clinical relevance. This constitutes the Stage 1 experiment, below. The secondary objective is to compare heparin with other heparin fractions in a screening test for activity, incorporated in the Stage 2 experiment. […]
The magnetic microrheometer was described by King (King M (1988) “Magnetic microtheometer” Methods in Bronchial Mucology, pp. 73-83.). This instrument is used to measure the bulk viscosity and elasticity of microliter quantities of mucus. […]
When interpreting the results of the studies discussed herein, the primary variable of interest is the decrease in mucus viscoelasticity, expressed as delta log G* (corrected for vehicle treatment). […]
From each of 10 CF sputum samples, up to 6 aliquots of approximately 10-15 mg each were incubated for 30 minutes at 37° with either 0.9% NaCl or with one of the concentrations of heparin, or with N-acetylcysteine L-lysinate (NAL) (309 mcg/mL). Prior to incubation and following it, sputum viscoelasticity at 10 rad/s was determined by magnetic microrheometry. […]

N-acetylcysteine L-lysinate [NAL]
mucolytic effect (fractional decrease in G*): effective at a lower concentration compared to heparin
